Test: xn = mol fraction of the nth substance listed
Conditions: Liquid, Vibrating tube method

CCCCCCCCCC [decane] + CCO
Conditions	mass density [kg/m3]
313.09 K, 11000 kPa, x2 = 0.0937	723.62
313.09 K, 12000 kPa, x2 = 0.0937	724.43
313.09 K, 13000 kPa, x2 = 0.0937	725.25
313.09 K, 14000 kPa, x2 = 0.0937	726.06
313.09 K, 15000 kPa, x2 = 0.0937	726.84
313.09 K, 16000 kPa, x2 = 0.0937	727.61
313.09 K, 17000 kPa, x2 = 0.0937	728.37
313.09 K, 18000 kPa, x2 = 0.0937	729.11
313.09 K, 19000 kPa, x2 = 0.0937	729.84
313.09 K, 20000 kPa, x2 = 0.0937	730.54
313.11 K, 1000 kPa, x2 = 0.2507	717.71
313.11 K, 2000 kPa, x2 = 0.2507	718.61
313.11 K, 3000 kPa, x2 = 0.2507	719.5
313.11 K, 4000 kPa, x2 = 0.2507	720.38
313.11 K, 5000 kPa, x2 = 0.2507	721.25
313.11 K, 6000 kPa, x2 = 0.2507	722.07
313.11 K, 7000 kPa, x2 = 0.2507	722.9
313.11 K, 8000 kPa, x2 = 0.2507	723.74
313.11 K, 9000 kPa, x2 = 0.2507	724.57
313.11 K, 10000 kPa, x2 = 0.2507	725.41
313.11 K, 11000 kPa, x2 = 0.2507	726.25
313.11 K, 12000 kPa, x2 = 0.2507	727.08
313.11 K, 13000 kPa, x2 = 0.2507	727.91
313.11 K, 14000 kPa, x2 = 0.2507	728.72
313.11 K, 15000 kPa, x2 = 0.2507	729.52
313.11 K, 16000 kPa, x2 = 0.2507	730.3
313.11 K, 17000 kPa, x2 = 0.2507	731.07
313.11 K, 18000 kPa, x2 = 0.2507	731.81
313.11 K, 19000 kPa, x2 = 0.2507	732.55
313.11 K, 20000 kPa, x2 = 0.2507	733.26
322.98 K, 1000 kPa, x2 = 0.4963	715.95
322.98 K, 2000 kPa, x2 = 0.4963	716.92
322.98 K, 3000 kPa, x2 = 0.4963	717.88
322.98 K, 4000 kPa, x2 = 0.4963	718.83
322.98 K, 5000 kPa, x2 = 0.4963	719.75
322.98 K, 6000 kPa, x2 = 0.4963	720.66
322.98 K, 7000 kPa, x2 = 0.4963	721.56
322.98 K, 8000 kPa, x2 = 0.4963	722.48
322.98 K, 9000 kPa, x2 = 0.4963	723.39
322.98 K, 10000 kPa, x2 = 0.4963	724.3
322.98 K, 11000 kPa, x2 = 0.4963	725.2
322.98 K, 12000 kPa, x2 = 0.4963	726.08
322.98 K, 13000 kPa, x2 = 0.4963	726.98
322.98 K, 14000 kPa, x2 = 0.4963	727.85
322.98 K, 15000 kPa, x2 = 0.4963	728.71
322.98 K, 16000 kPa, x2 = 0.4963	729.56
322.98 K, 17000 kPa, x2 = 0.4963	730.39
322.98 K, 18000 kPa, x2 = 0.4963	731.19
322.98 K, 19000 kPa, x2 = 0.4963	731.99
322.98 K, 20000 kPa, x2 = 0.4963	732.78
322.99 K, 1000 kPa, x2 = 0.0937	707.2
322.99 K, 1000 kPa, x2 = 0.9014	745.03
322.99 K, 2000 kPa, x2 = 0.0937	708.15
322.99 K, 2000 kPa, x2 = 0.9014	746.04
322.99 K, 3000 kPa, x2 = 0.0937	709.09
322.99 K, 3000 kPa, x2 = 0.9014	747.05
322.99 K, 4000 kPa, x2 = 0.0937	710.01
322.99 K, 4000 kPa, x2 = 0.9014	748.04
322.99 K, 5000 kPa, x2 = 0.0937	710.92
322.99 K, 5000 kPa, x2 = 0.9014	749.01
322.99 K, 6000 kPa, x2 = 0.0937	711.82
322.99 K, 6000 kPa, x2 = 0.9014	749.97
322.99 K, 7000 kPa, x2 = 0.0937	712.7
322.99 K, 7000 kPa, x2 = 0.9014	750.92
322.99 K, 8000 kPa, x2 = 0.0937	713.57
322.99 K, 8000 kPa, x2 = 0.9014	751.88
322.99 K, 9000 kPa, x2 = 0.0937	714.44
322.99 K, 9000 kPa, x2 = 0.9014	752.84
322.99 K, 10000 kPa, x2 = 0.0937	715.32
322.99 K, 10000 kPa, x2 = 0.9014	753.79
322.99 K, 11000 kPa, x2 = 0.0937	716.18
322.99 K, 11000 kPa, x2 = 0.9014	754.74
322.99 K, 12000 kPa, x2 = 0.0937	717.04
322.99 K, 12000 kPa, x2 = 0.9014	755.67
322.99 K, 13000 kPa, x2 = 0.0937	717.9
322.99 K, 13000 kPa, x2 = 0.9014	756.6
322.99 K, 14000 kPa, x2 = 0.0937	718.73
322.99 K, 14000 kPa, x2 = 0.9014	757.52
322.99 K, 15000 kPa, x2 = 0.0937	719.56
322.99 K, 15000 kPa, x2 = 0.9014	758.41
322.99 K, 16000 kPa, x2 = 0.0937	720.37
322.99 K, 16000 kPa, x2 = 0.9014	759.31
322.99 K, 17000 kPa, x2 = 0.0937	721.18
322.99 K, 17000 kPa, x2 = 0.9014	760.18
322.99 K, 18000 kPa, x2 = 0.0937	721.95
322.99 K, 18000 kPa, x2 = 0.9014	761.04
322.99 K, 19000 kPa, x2 = 0.0937	722.72
322.99 K, 19000 kPa, x2 = 0.9014	761.88
322.99 K, 20000 kPa, x2 = 0.0937	723.46
322.99 K, 20000 kPa, x2 = 0.9014	762.71
